Experiment [1] deals with T1, bovine pancreatic α-chymotrypsin (Bos taurus, UniProt P00766).
T1 construct: from tissue; host or cells: pancreas (from the enzyme's name only)
The experiment can be described thus: Specificity assay, bovine pancreatic α-chymotrypsin. The experiment is classed as biochemical. The method, then: The specificities of compounds of the present invention were determined against a variety of serine proteases: human leukocyte elastase, porcine pancreatic elastase and bovine pancreatic α-chymotrypsin and one cysteine protease: human liver cathepsin B. In all cases a 96-well plate format protocol using calorimetric […] (pNA) substrate specific for each enzyme was used as described previously (Patent WO 00/09543) with some modifications.
Each assay included a 1 h enzyme-inhibitor pre-incubation at RT followed by addition of substrate and hydrolysis to ˜30% conversion as measured on a Spectramax Pro microplate reader. Compound concentrations varied from 100 to 0.4 μM depending on their potency.
The final conditions and protocol for each assay was as reported previously (Patent WO 00/09543) with the inclusion of an additional assay: • 50 mM Tris-HCl pH 8, 0.5M Na2SO4, 50 mM NaCl, 0.1 mM EDTA, 3% DMSO, 0.01% Tween-20 with 133 μM succ-AAA-PNA and 20 nM Elastase
The percentage of inhibition was calculated using the formula: [1−((UVinh−UVblank)/(UVctl−UVblank))]×100

Experiment [2] concerns the target HCV NS3/4A protease complex (Hepatitis C virus genotype 1a, UniProt P27958, C1454S/C1711G). The experiment can be described thus: Recombinant HCV NS3/4A protease complex FRET peptide assay (strain not stated). The experiment is classed as biochemical.

Each structure is given as a SMILES string.

HCV NS3/4A protease complex, sequence (P27958 1027-1711, stated change not applied): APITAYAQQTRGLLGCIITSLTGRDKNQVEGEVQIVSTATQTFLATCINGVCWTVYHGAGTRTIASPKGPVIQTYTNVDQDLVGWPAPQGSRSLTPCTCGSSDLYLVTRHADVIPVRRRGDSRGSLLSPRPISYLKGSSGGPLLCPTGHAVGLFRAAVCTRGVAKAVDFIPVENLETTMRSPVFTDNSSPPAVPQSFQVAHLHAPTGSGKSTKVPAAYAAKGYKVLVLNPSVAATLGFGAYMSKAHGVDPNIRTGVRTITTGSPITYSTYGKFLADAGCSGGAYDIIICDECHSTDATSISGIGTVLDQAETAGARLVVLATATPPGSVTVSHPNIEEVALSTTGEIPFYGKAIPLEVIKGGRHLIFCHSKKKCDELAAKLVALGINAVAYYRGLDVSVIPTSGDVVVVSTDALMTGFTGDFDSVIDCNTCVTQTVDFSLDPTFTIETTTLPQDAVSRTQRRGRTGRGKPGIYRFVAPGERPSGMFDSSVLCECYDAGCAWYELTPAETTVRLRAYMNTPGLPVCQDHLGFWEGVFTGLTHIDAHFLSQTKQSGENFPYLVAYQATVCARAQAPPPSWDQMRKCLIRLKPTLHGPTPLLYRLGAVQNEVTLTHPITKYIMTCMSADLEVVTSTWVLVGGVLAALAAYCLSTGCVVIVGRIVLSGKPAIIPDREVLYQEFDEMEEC
HCV NS3/4A protease complex, sequence (P27958 1027-1711, stated change not applied): as above

With `C=CC1C[C@]1(NC(=O)[C@@H]1C[C@@H](Oc2cc(-c3ccccc3)nc3cc(OC)ccc23)CN1C(=O)C(NC(=O)OC(C)(C)C)C(C)(C)C)C(=O)NS(=O)(=O)c1ccc(NC(C)=O)cc1` (stereo partly drawn) [Compound 58], the 50% inhibitory concentration (IC50) in experiment [1] was greater than 100000 nM; in experiment [2] (IC50, NS3/4A protease enzyme assay, strain not stated, activity ranges), less than 50 nM; in experiment [2] (IC50, strain not stated), 21 nM.

One may read the IC50 as the point on the concentration scale where inhibition reaches its midpoint.

Source of the values: patent publication US6872805B2 (Bristol-Myers Squibb Company, priority 2000, dated 2005).
